Target: Urease (Type III, from Canavalia ensiformis) (Canavalia ensiformis, UniProt P07374)
Assay: ESI-MS (MRM) assay of urea depletion by purified urease, […] min pre-incubation with inhibitor
Type: biochemical

Chain of Urease (Type III, from Canavalia ensiformis) (P07374 whole entry): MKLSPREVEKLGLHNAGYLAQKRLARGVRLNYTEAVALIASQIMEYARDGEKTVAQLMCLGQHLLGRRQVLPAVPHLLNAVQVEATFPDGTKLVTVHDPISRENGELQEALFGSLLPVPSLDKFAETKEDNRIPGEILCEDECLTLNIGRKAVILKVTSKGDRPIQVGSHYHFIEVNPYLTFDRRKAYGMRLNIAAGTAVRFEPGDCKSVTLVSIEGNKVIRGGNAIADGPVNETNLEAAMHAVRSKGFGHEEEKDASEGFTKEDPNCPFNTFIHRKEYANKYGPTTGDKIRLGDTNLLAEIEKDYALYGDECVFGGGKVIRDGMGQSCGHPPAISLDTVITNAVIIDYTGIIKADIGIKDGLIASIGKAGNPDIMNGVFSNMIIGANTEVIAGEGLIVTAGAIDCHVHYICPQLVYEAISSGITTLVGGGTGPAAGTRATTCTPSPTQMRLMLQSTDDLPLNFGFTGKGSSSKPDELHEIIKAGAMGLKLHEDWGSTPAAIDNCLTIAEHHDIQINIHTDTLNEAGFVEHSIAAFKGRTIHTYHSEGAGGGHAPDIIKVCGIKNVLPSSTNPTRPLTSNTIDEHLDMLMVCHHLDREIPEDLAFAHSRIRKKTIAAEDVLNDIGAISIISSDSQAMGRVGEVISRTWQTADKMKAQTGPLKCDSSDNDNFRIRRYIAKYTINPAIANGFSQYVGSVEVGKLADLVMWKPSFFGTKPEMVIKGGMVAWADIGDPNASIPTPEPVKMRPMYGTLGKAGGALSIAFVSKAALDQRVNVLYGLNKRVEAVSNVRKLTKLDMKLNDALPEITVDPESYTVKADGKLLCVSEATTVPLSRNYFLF

CC(=O)NO [AHA, acetohydroxamic acid]
IC50: 4.3 µM

— paper PMC6154344, “Hibiscus sabdariffa L. and Its Bioactive Constituents Exhibit Antiviral Activity against HSV-2 and Anti-Enzymatic Properties against Urease by an ESI-MS Based Assay” (Molecules : A Journal of Synthetic Chemistry and Natural …, 2017)
